Results on 11 compounds are retold here after US12404285B2, “KRAS G12D proteolysis targeting chimeras” (PAQ Therapeutics Inc., priority 2022, dated 2025).

T1 sequence (P01116 1-188 isoform P01116-2 G12D): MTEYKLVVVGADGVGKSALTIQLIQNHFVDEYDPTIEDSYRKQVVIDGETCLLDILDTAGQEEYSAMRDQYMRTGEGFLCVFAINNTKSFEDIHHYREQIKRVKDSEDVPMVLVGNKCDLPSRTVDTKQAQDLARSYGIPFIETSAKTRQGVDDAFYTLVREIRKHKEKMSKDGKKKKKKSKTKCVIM

This experiment addresses T1, KRAS in AGS cells (KRAS G12D mutant cell line) or LS180 cells (KRAS G12D mutant cell line) (Homo sapiens, UniProt P01116, G12D).
T1 construct: CRL-187 (LS180) (so in the source); host or cells: AGS or LS180 cells
The experiment in a line: KRAS Western Blot (WB) assay. Format: cell-based. Particulars: KRAS degradation, 24 hours incubation, normalized to β-actin. Here is the method: Day 1. Seeded AGS cells (KRAS G12D mutant cell line, ATCC, CRL-1739) or LS180 cells (KRAS G12D mutant cell line, ATCC, CRL-187) into 6-well plates (cell density: 3×10^5 cells/well/2 ml medium) in Ham's F-12 medium (Invitrogen, 11765-054) or Eagle's Minimum Essential Medium (ATCC, 30-2003) and incubated overnight at 37° C. and 5% CO2.
Day 2. Aspirated 1 ml medium from each well and added 1 ml medium containing DMSO or test compound into the well to achieve the desired final concentration. Mixed well by gentle shaking and incubated for 24 hours.
Day 3. Aspirated media from plates; washed cells with 2 ml 4° C. PBS (Solarbio, P1020-500) and aspirated the PBS. Then added 100 μl 4° C. […] lysis buffer (Boston BioProducts BP-115D) with protease and phosphatase inhibitors at vendor recommended concentrations (Roche 05892791001 and 04906837001) into each well to lyse the cells, and incubated for 20 minutes at 4° C. Cell lysate was collected into 1.5 ml Eppendorf tube, and the lysate was sonicated at 4° C. for 2 minutes (5 second pulse at 30% power with 10 second intermissions). The lysate was centrifuged at 12,000 rpm for 15 minutes at 4° C. The supernatant was transferred to a fresh Eppendorf tube, and protein concentration was quantified using a BCA kit (Solarbio, PC0020-500). Mixed the cell lysate and 5×NuPAGE SDS Loading Buffer (Beyotime, P0015L), and heated at 95° C. for 10 minutes in a heat block. Prepared samples were stored at −80° C. until SDS-PAGE procedure.
Day 4. Loaded 15 μg protein from each sample onto NuPAGE® Novex 4-12% Bis-Tris Midi Gel, 26 W (Invitrogen, WG1403BOX) and ran the gel at 120V for 1.5 hours in 1×NuPAGE® MOPS SDS Running Buffer (Novex, NP0001). Electrotransferred to nitrocellulose membrane using dry transfer method (iBlot 2 Transfer Stacks, nitrocellulose, IB23001) with a program consisting of 20V for 1 minute, 23V for 4 minutes and 25V for 2 minutes. Blocked the membrane with 5% BSA (Solarbio, A8020) in 1×TBST (CST, 9997S) for 1 hour at room temperature. Incubated with KRAS antibody (LSBio, LS-C175665, clone 2C1) at 1:1000 dilution and β-actin antibody at 1:1000 dilution (CST, 4970S) in TBST containing 1% BSA (Solarbio, A8020) at 4° C. overnight.
Day 5. Washed nitrocellulose membrane three times with 1×TBST for 10 minutes each at room temperature. Incubated with fluorescently labeled secondary antibodies at 1:5000 dilution in TBST containing 1% BSA (anti-rabbit IgG, Licor, 926-32211; anti-mouse IgG, LI-COR, 926-68070) for 1 hour at room temperature. Washed membrane three times with TBST, 10 minutes each. Scanned the membrane on LiCOR scanner for fluorescent signal(s) and quantified KRAS bands and β-actin bands for normalization.
The data are reported in Table 2, wherein “A” indicates a DC50 of less than 1 μM; “B” indicates a DC50 of greater than or equal to 1 μM and less than 10 μM; and “C” indicates a DC50 of greater than or equal to 10 μM.
As to `C#Cc1c(F)ccc2cc(O)cc(-c3ncc4c(N5CC6CCC(C5)N6)nc(OC[C@@]56CCCN5[C@H](COC(=O)NCCCCCCNc5ccc7c(c5)C(=O)N(C5CCC(=O)NC5=O)C7=O)CC6)nc4c3F)c12` (stereo partly drawn) [Compound 017, [(3S,8S)-8-[[4-(3,8-diazabicyclo[3.2.1]octan-3-yl)-7-(8-ethynyl-7-fluoro-3-hydroxy-1-naphthyl)-8-fluoro-pyrido[4,3-d]pyrimidin-2-yl]oxymethyl]-1,2,3,5,6,7-hexahydropyrrolizin-3-yl]methyl N-[6-[[2-(2,6-dioxo-3-piperidyl)-1,3-dioxo-isoindolin-5-yl]amino]hexyl]carbamate], the DC50 result is “B (DC50 greater than or equal to 1 μM and less than 10 μM)”.

On to `C#Cc1c(F)ccc2cc(O)cc(-c3ncc4c(N5CC6CCC(C5)N6)nc(OC[C@@]56CCCN5[C@H](COC(=O)NCCCCCCCCCCCc5cccc7c5n(C)c(=O)n7C5CCC(=O)NC5=O)CC6)nc4c3F)c12` (stereo partly drawn) [Compound 011, [(3S,8S)-8-[[4-(3,8-diazabicyclo[3.2.1]octan-3-yl)-7-(8-ethynyl-7-fluoro-3-hydroxy-1-naphthyl)-8-fluoro-pyrido[4,3-d]pyrimidin-2-yl]oxymethyl]-1,2,3,5,6,7-hexahydropyrrolizin-3-yl]methylN-[11-[1-(2,6-dioxo-3-piperidyl)-3-methyl-2-oxo-benzimidazol-4-yl]undecyl]carbamate], for which the DC50 result was “A (DC50 less than 1 μM)”.

As to `C#Cc1c(F)ccc2cc(O)cc(-c3ncc4c(N5CC6CCC(C5)N6)nc(OC[C@@]56CCCN5[C@H](COC(=O)NCCCCCCCCCCCc5ccc7c(c5)n(C)c(=O)n7C5CCC(=O)NC5=O)CC6)nc4c3F)c12` (stereo partly drawn) [Compound 009, [(3S,8S)-8-[[4-(3,8-diazabicyclo[3.2.1]octan-3-yl)-7-(8-ethynyl-7-fluoro-3-hydroxy-1-naphthyl)-8-fluoro-pyrido[4,3-d]pyrimidin-2-yl]oxymethyl]-1,2,3,5,6,7-hexahydropyrrolizin-3-yl]methyl N-[11-[1-(2,6-dioxo-3-piperidyl)-3-methyl-2-oxo-benzimidazol-5-yl]undecyl]carbamate], the DC50 entry is reported as “A (DC50 less than 1 μM)”.

As to `C#Cc1c(F)ccc2cc(O)cc(-c3ncc4c(N5CC6CCC(C5)N6)nc(OC[C@@]56CCCN5[C@H](COC(=O)NCCCCCCCCCc5ccc7c(c5)n(C)c(=O)n7C5CCC(=O)NC5=O)CC6)nc4c3F)c12` (stereo partly drawn) [Compound 010, [(3S,8S)-8-[[4-(3,8-diazabicyclo[3.2.1]octan-3-yl)-7-(8-ethynyl-7-fluoro-3-hydroxy-1-naphthyl)-8-fluoro-pyrido[4,3-d]pyrimidin-2-yl]oxymethyl]-1,2,3,5,6,7-hexahydropyrrolizin-3-yl]methyl N-[9-[1-(2,6-dioxo-3-piperidyl)-3-methyl-2-oxo-benzimidazol-5-yl]nonyl]carbamate], the DC50 result was “A (DC50 less than 1 μM)”.

In the case of `C#Cc1c(F)ccc2cc(O)cc(-c3ncc4c(N5CC6CCC(C5)N6)nc(OC[C@@]56CCCN5[C@H](COC(=O)NCCc5ccc7c(c5)n(C)c(=O)n7C5CCC(=O)NC5=O)CC6)nc4c3F)c12` (stereo partly drawn) [Compound 002, [(3S,8S)-8-[[4-(3,8-diazabicyclo[3.2.1]octan-3-yl)-7-(8-ethynyl-7-fluoro-3-hydroxy-1-naphthyl)-8-fluoro-pyrido[4,3-d]pyrimidin-2-yl]oxymethyl]-1,2,3,5,6,7-hexahydropyrrolizin-3-yl]methyl N-[2-[1-(2,6-dioxo-3-piperidyl)-3-methyl-2-oxo-benzimidazol-5-yl]ethyl]carbamate], the DC50 entry is reported as “C (DC50 greater than or equal to 10 μM)”.

With `C#Cc1c(F)ccc2cc(O)cc(-c3ncc4c(N5CC6CCC(C5)N6)nc(OC[C@@]56CCCN5[C@H](COC(=O)NCCCCNc5cccc7c5C(=O)N(C5CCC(=O)NC5=O)C7=O)CC6)nc4c3F)c12` (stereo partly drawn) [Compound 019, [(3S,8S)-8-[[4-(3,8-diazabicyclo[3.2.1]octan-3-yl)-7-(8-ethynyl-7-fluoro-3-hydroxy-1-naphthyl)-8-fluoro-pyrido[4,3-d]pyrimidin-2-yl]oxymethyl]-1,2,3,5,6,7-hexahydropyrrolizin-3-yl]methyl-N-[4-[[2-(2,6-dioxo-3-piperidyl)-1,3-dioxo-isoindolin-4-yl]amino]butyl]carbamate], the DC50 result is recorded as “C (DC50 greater than or equal to 10 μM)”.

Regarding `C#Cc1c(F)ccc2cc(O)cc(-c3ncc4c(N5CC6CCC(C5)N6)nc(OC[C@@]56CCCN5[C@H](COC(=O)NCCCCCc5ccc7c(c5)n(C)c(=O)n7C5CCC(=O)NC5=O)CC6)nc4c3F)c12` (stereo partly drawn) [Compound 005, [(3S,8S)-8-[[4-(3,8-diazabicyclo[3.2.1]octan-3-yl)-7-(8-ethynyl-7-fluoro-3-hydroxy-1-napht-hyl)-8-fluoro-pyrido[4,3-d]pyrimidin-2-yl]oxymethyl]-1,2,3,5,6,7-hexahydropyrrolizin-3-yl]methyl N-[5-[1-(2,6-dioxo-3-piperidyl)-3-methyl-2-oxo-benzimidazol-5-yl]pentyl]carbamate], the DC50 result is “C (DC50 greater than or equal to 10 μM)”.

With `C#Cc1c(F)ccc2cc(O)cc(-c3ncc4c(N5CC6CCC(C5)N6)nc(OC[C@@]56CCCN5[C@H](COC(=O)NCCCNc5cccc7c5C(=O)N(C5CCC(=O)NC5=O)C7=O)CC6)nc4c3F)c12` (stereo partly drawn) [Compound 020, [(3S,8S)-8-[[4-(3,8-diazabicyclo[3.2.1]octan-3-yl)-7-(8-ethynyl-7-fluoro-3-hydroxy-1-naphthyl)-8-fluoro-pyrido[4,3-d]pyrimidin-2-yl]oxymethyl]-1,2,3,5,6,7-hexahydropyrrolizin-3-yl]methylN-[3-[[2-(2,6-dioxo-3-piperidyl)-1,3-dioxo-isoindolin-4-yl]amino]propyl]carbamate], the DC50 result is listed as “C (DC50 greater than or equal to 10 μM)”.

In the case of `C#Cc1c(F)ccc2cc(O)cc(-c3ncc4c(N5C[C@H]6CC[C@@H](C5)N6)nc(OC[C@@]56CCCN5[C@H](COC(=O)NCCCCCCCCCCc5ccc7c(c5)n(C)c(=O)n7C5CCC(=O)NC5=O)CC6)nc4c3F)c12` (stereo partly drawn) [Compound 013, ((3S,7aS)-7a-(((4-((1R,5S)-3,8-diazabicyclo[3.2.1]octan-3-yl)-7-(8-ethynyl-7-fluoro-3-hydroxynaphthalen-1-yl)-8-fluoropyrido[4,3-d]pyrimidin-2-yl)oxy)methyl)hexahydro-1H-pyrrolizin-3-yl)methyl (10-(1-(2,6-dioxopiperidin-3-yl)-3-methyl-2-oxo-2,3-dihydro-1H-benzo[d]imidazol-5-yl)decyl) carbamate], the DC50 result is on record as “A (DC50 less than 1 μM)”.

As to `C#Cc1c(F)ccc2cc(O)cc(-c3ncc4c(N5CC6CCC(C5)N6)nc(OC[C@@]56CCCN5[C@H](COC(=O)NCCCCCc5cccc7c5n(C)c(=O)n7C5CCC(=O)NC5=O)CC6)nc4c3F)c12` (stereo partly drawn) [Compound 007, [(3S,8S)-8-[[4-(3,8-diazabicyclo[3.2.1]octan-3-yl)-7-(8-ethynyl-7-fluoro-3-hydroxy-1-naphthyl)-8-fluoro-pyrido[4,3-d]pyrimidin-2-yl]oxymethyl]-1,2,3,5,6,7-hexahydropyrrolizin-3-yl]methyl N-[5-[1-(2,6-dioxo-3-piperidyl)-3-methyl-2-oxo-benzimidazol-4-yl]pentyl]carbamate], the DC50 result was “C (DC50 greater than or equal to 10 μM)”.

Consider `C#Cc1c(F)ccc2cccc(-c3ncc4c(N5CC6CCC(C5)N6)nc(OC[C@@]56CCCN5[C@H](COC(=O)NCCCCCCCCc5ccc7c(c5)n(C)c(=O)n7C5CCC(=O)NC5=O)CC6)nc4c3F)c12` (stereo partly drawn) [Compound 029, [(3S,8S)-8-[[4-(3, example 208-diazabicyclo[3.2.1]octan-3-yl)-7-(8-ethynyl-7-fluoro-1-naphthyl)-8-fluoro-pyrido[4,3-d]pyrimidin-2-yl]oxymethyl]-1,2,3,5,6,7-hexahydropyrrolizin-3-yl]methyl N-[8-[1-(2,6-dioxo-3-piperidyl)-3-methyl-2-oxo-benzimidazol-5-yl]octyl]carbamate], for which the DC50 entry is “A (DC50 less than 1 μM)”.
